# Data: patent publication US7049334B2, “Enhancement of learning and memory and treatment of amnesia” (priority 2001, dated 2006)
# Tests used:
# [1] = system: cortico-amygdala pathway (lateral amygdala); test: LTP in cortico-amygdala pathway (fEPSP); format: cell-based, Wistar rats; settings: three trains (100 Hz, 1 sec at 3 min interval); in the presence of compound 1; n=4
# Protocol: After decapitation, brains of either adult ([…], for the induction of long-term potentiation) or young (2–3 weeks old, for the induction of long-term depression) Wistar rats were rapidly removed, and the hippocampus was dissected out. Transverse hippocampal slices (450 μm thickness) were immediately placed in an ice-cold cutting buffer containing 124 mM NaCl, 3 mM KCl, 1.0 mM Na2HPO4, 25 mM NaHCO3, 0.5 mM CaCl2, 5.0 mM MgSO4, 10 mM glucose, saturated with 95% O2 and 5% CO2. The slices were then maintained in an interface chamber at room temperature, and perfused at flow rate of 1–2 mL/min with artificial cerebrospinal fluid (ACSF). […] The test pulse duration was 100 μsec, and test responses were elicited at 0.02 Hz. To record field potentials in the cortico-amygdala pathway, a stimulating electrode was placed in the external capsule, which contained fibers from the auditory cortex to the lateral amygdala. Bicuculine (10 μM) was present in the perfusion solution when the fEPSPs of amygdala were recorded. […] Evoked fEPSPs were recorded and data were analyzed. The initial slope of the fEPSPs was calculated, and the data were expressed as percentages of the average of the base-line slope of the fEPSPs. […]
# [2] = system: rats (spatial memory); test: Morris water maze; format: in vivo
# Protocol: Morris water maze: Morris water maze was performed in a circular pool (224 cm in diameter, 46 cm in height) located in a room with distinctive visual cues. Water was filled to a depth of 36 cm and a transparent plastic platform (25×25 cm, 32 cm in height) was located at the center of a fixed quadrant. Rats were trained for two days in the task environment: free-swimming in the pool without the transparent plastic platform. Each training session was 2 min and the rats were picked up from the pool by an experimenter. Then, rats received 4 consecutive daily training trials for the following six days. During each training trial, each rat was placed into the water randomly from one of the quadrants. The rat had to swim until it climbed onto the plastic platform submerged underneath the water. The time duration from being placed into the water to climbing onto the plastic platform was recorded and defined as escape latency. […] Each rat stayed on the platform for 60 s, which also served as the interval of trial. Compound 1 (1 mg/kg) or vehicle was daily injected to each rat 10 min before the first training trial. After the last training trial of each day, each rat was dried by a towel, and an electric heater was placed in its home cage.
# Substantial evidence implicates the hippocampus in acquisition and retention of spatial information. See, e.g., Ohon et al. (1979) Behav. Brain Sci. 2: 316–365; and Barnes (1988) Trend Neurosci. 11: 163–169. The effect of Compound 1 on the acquisition of spatial memory in the Morris water maze was tested. Rats received 4 consecutive training trials every day. Compound 1 (1 mg/kg) was daily injected (i.p., 1 mg/kg) 10 min before the first trial of training. […] The escape latencies of 2˜4 trials were 93.8±8.7 s, 79.3±12/3 s and 57.6±12.5 s for a control group, and 50.4±10.2 s, 47.3±6.8 s and 30.3±10.3 for the Compound 1 group (n=10), respectively. The escape latencies of the first trial on the following 3 training days were also markedly shortened in the Compound 1 group. The escape latencies were 91.1±9.8 s, 47.1±3.9 s and 35.3±6.1 s for the control group, and 55.4±12.8 s, 15.3±2.1 s, and 13.4±1.7 s for the Compound 1 group (n=10), respectively. […] The escape latency is shorter in the Compound 1 group throughout the whole experimental period up to 21 days although Compound 1 was only administered […] for 4 days. The mean escape latency on the day-21 is 13.5±1.8 s and 6.0±0.5 s (n=10 each) for the control group and the Compound 1 group, respectively. From results shown above, Compound 1 is a promising drug for improving learning and memory. Compound 1 was mixed with 1.25% carboxymethylcellulose (CMC) and orally delivered to stomach (10 mg/kg) directly 30 min before the first trial for 6 successive days.
# Since L-NAME antagonized Compound 1-induced LTP enhancement in hippocampal slices, in vivo experiments were performed to test the effect of L-NAME on the improved learning and memory provoked by Compound 1. In these experiments, rats chronically implanted with cannulae were injected intracerebroventrically with L-NAME (1 mmole/10 mL) or saline 10 min before the first trial of daily training, concomitant with i.p. injection of Compound 1 (1 mg/kg). […] Intracerebroventricular administration of KT 5823 also impaired the Compound 1-induced enhancement.
# [3] = i.p. 1 mg/kg daily 10 min before first trial, n=10
smiles,measurement,setting,value
"OCc1ccc(-c2nn(Cc3ccccc3)c3ccccc23)o1 [Compound 1, 1-benzyl-3-(5′-hydroxymethyl-2′-furyl)-indazole]",duration of enduring LTP in amygdala,[1],at least 1 hr
same,"enhanced learning and memory induced by Compound 1, with L-NAME","[2]; L-NAME intracerebroventricular 10 min before first trial, with i.p. Compound 1 (1 mg/kg)",significantly blocked
same,"escape latency, trial 2 of first training day",[2]; [3],50.4 ± 10.2 s
same,"escape latency, trial 3 of first training day",[2]; [3],47.3 ± 6.8 s
same,"escape latency, trial 4 of first training day","[2]; i.p. 1 mg/kg daily 10 min before first trial, n=10, in s (unit assumed)",30.3±10.3
same,"escape latency of the first trial, first of the following 3 training days","[2]; i.p. 1 mg/kg, n=10",55.4 ± 12.8 s
same,"escape latency of the first trial, second of the following 3 training days","[2]; i.p. 1 mg/kg, n=10",15.3 ± 2.1 s
same,"escape latency of the first trial, third of the following 3 training days","[2]; i.p. 1 mg/kg, n=10",13.4 ± 1.7 s
same,mean escape latency on day-21,"[2]; i.p. 1 mg/kg, n=10",6.0 ± 0.5 s
same,"Compound 1-induced enhancement, with KT 5823",[2]; intracerebroventricular KT 5823,impaired
same,effect of oral administration on memory,"[2]; oral 10 mg/kg in 1.25% CMC, 30 min before first trial for 6 successive days",promoted short-term and long-term memory
